Reference: the NIST ThermoML archive (doi:10.1016/j.tca.2006.11.008)
Numbers after ± are expanded uncertainties.

Assay: molar enthalpy of vaporization or sublimation
Details: Crystal, Static calorimetry

molar enthalpy (386 K) [kcal/mol]	molar enthalpy (426.8 K) [kcal/mol]	Structure (SMILES)
26.9 ± 0.311	–	NC(=O)C1CCCNC1 (stereo not drawn) [3-piperidinecarboxamide]
–	29.5 ± 0.311	NC(=O)C1CCNCC1 [4-piperidinecarboxamide]
23.9 ± 0.311	–	NC(=O)N1CCCCC1 [1-piperidinecarboxamide]
